Experimental data: the supplement of paper PMC10307832

Columns and labels:
Test in all cases: relative viability (nuclei count vs DMSO), 5 days (fraction); higher = more cells survive
Ponatinib + Dasatinib = compound: Cc1ccc(C(=O)Nc2ccc(CN3CCN(C)CC3)c(C(F)(F)F)c2)cc1C#Cc1cnc2cccnn12 [Ponatinib] + Cc1nc(Nc2ncc(C(=O)Nc3c(C)cccc3Cl)s2)cc(N2CCN(CCO)CC2)n1 [Dasatinib] (partner 0.075 µM)
Outline: (§1)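 One day after seeding in 1536-well plates, lung cancer cell lines were dosed by pin tool. Dosing was either single-drug or a fixed anchor-drug dose plus five library-drug doses (not always all listed) in √10 steps. After 5 days, nuclei were stained in one fix-and-stain step and counted on 4× images, and relative viability is the nuclei count of treated wells over that of vehicle wells, given as the median of duplicate plates.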

Pazopanib + Trametinib = compound: Cc1ccc(Nc2nccc(N(C)c3ccc4c(C)n(C)nc4c3)n2)cc1S(N)(=O)=O [Pazopanib] + CC(=O)Nc1cccc(-n2c(=O)n(C3CC3)c(=O)c3c(Nc4ccc(I)cc4F)n(C)c(=O)c(C)c32)c1 [Trametinib] (partner 0.02 µM)
Outline: as §1

Ponatinib + Bortezomib = compound: Cc1ccc(C(=O)Nc2ccc(CN3CCN(C)CC3)c(C(F)(F)F)c2)cc1C#Cc1cnc2cccnn12 [Ponatinib] + CC(C)C[C@H](NC(=O)[C@H](Cc1ccccc1)NC(=O)c1cnccn1)B(O)O [Bortezomib] (partner 0.002 µM)
Outline: as §1

Pazopanib + Foretinib = compound: Cc1ccc(Nc2nccc(N(C)c3ccc4c(C)n(C)nc4c3)n2)cc1S(N)(=O)=O [Pazopanib] + COc1cc2c(Oc3ccc(NC(=O)C4(C(=O)Nc5ccc(F)cc5)CC4)cc3F)ccnc2cc1OCCCN1CCOCC1 [Foretinib] (partner 0.25 µM)
Outline: as §1

Cell Line	relative viability (Ponatinib + Dasatinib; first compound 0.002 µM)	relative viability (Ponatinib + Dasatinib; first compound 0.006325 µM)	relative viability (Ponatinib + Dasatinib; first compound 0.06325 µM)	relative viability (Ponatinib + Dasatinib; first compound 0.2 µM)	relative viability (Pazopanib + Trametinib; first compound 0.01 µM)	relative viability (Pazopanib + Trametinib; first compound 0.03162 µM)	relative viability (Pazopanib + Trametinib; first compound 0.1 µM)	relative viability (Pazopanib + Trametinib; first compound 0.3162 µM)	relative viability (Pazopanib + Trametinib; first compound 1 µM)	relative viability (Ponatinib + Bortezomib; first compound 0.002 µM)	relative viability (Ponatinib + Bortezomib; first compound 0.006325 µM)	relative viability (Ponatinib + Bortezomib; first compound 0.06325 µM)	relative viability (Ponatinib + Bortezomib; first compound 0.2 µM)	relative viability (Pazopanib + Foretinib; first compound 0.01 µM)	relative viability (Pazopanib + Foretinib; first compound 0.03162 µM)	relative viability (Pazopanib + Foretinib; first compound 0.1 µM)	relative viability (Pazopanib + Foretinib; first compound 0.3162 µM)	relative viability (Pazopanib + Foretinib; first compound 1 µM)
NCI-H1975	0.28	0.355	0.318	0.267	0.277	0.323	0.369	0.373	0.401	0.353	0.296	0.338	0.36	0.911	0.945	0.997	1.03	1.03
CAL-12T	0.48	0.37	0.365	0.219	0.32	0.437	0.331	0.437	0.446	0.634	0.9	1.39	1.09	1.03	1.06	1.17	1.05	0.97
NCI-H1623	0.524	0.527	0.55	0.539	–	–	–	–	–	–	–	–	–	0.835	0.846	0.834	0.896	0.911
HCC-44	–	–	–	–	1.03	1	1.03	1	1.09	0.825	0.804	1.07	0.872	–	–	–	–	–
EKVX	0.56	0.624	0.502	0.483	0.337	0.349	0.267	0.318	0.449	1.01	1.11	1.13	1.02	0.961	0.866	0.62	0.901	0.942
NCI-H1651	0.398	0.435	0.451	0.355	0.833	0.831	0.814	0.808	0.862	0.936	0.869	0.975	0.983	0.836	0.734	0.817	0.773	0.895
NCI-H2170	0.46	0.591	0.561	0.491	0.909	0.909	0.949	0.97	0.919	–	–	–	–	1.06	1.08	1.01	1.02	1.07
NCI-H1703	–	–	–	–	–	–	–	–	–	0.296	0.261	0.26	0.143	0.306	0.358	0.362	0.396	0.337
Calu-6	–	–	–	–	–	–	–	–	–	1.01	1.11	0.953	0.856	0.89	0.954	0.93	0.848	0.803
EBC-1	–	–	–	–	–	–	–	–	–	0.543	0.585	0.65	0.534	0.095	0.104	0.0934	0.103	0.0962
A-427	0.696	0.784	0.721	0.481	0.7	0.882	0.679	0.71	0.753	0.889	0.976	1.02	0.905	0.971	1.21	1.15	1.02	1.05
NCI-H2405	0.17	0.206	0.187	0.202	0.562	0.672	0.666	0.644	0.524	0.931	1.05	0.944	0.93	0.997	1.13	1.11	1.11	1.08
NCI-H1355	0.651	0.714	0.81	0.668	0.363	0.409	0.397	0.446	0.534	1.09	1.11	1.25	1.19	0.804	1	1.08	0.979	1
SK-MES-1	0.32	0.413	0.455	0.33	0.537	0.555	0.621	0.725	0.628	–	–	–	–	0.95	0.985	0.951	0.951	1.1
RERF-LC-KJ	0.707	0.824	0.93	0.844	0.82	0.892	0.842	0.805	0.853	1.06	0.988	1.2	1.15	0.844	0.859	0.857	0.86	0.792
NCI-H2228	0.372	0.515	0.462	0.393	0.353	0.501	0.425	0.32	0.759	0.933	1.1	0.755	0.893	0.938	1.01	0.764	0.792	0.993
HOP-62	0.6	0.607	0.819	0.6	0.378	0.371	0.421	0.427	0.5	0.728	0.571	0.597	0.701	1.05	1.04	1.2	1.08	0.976
HARA	0.281	0.215	0.233	0.173	0.829	0.94	0.604	0.755	0.725	1.06	1.1	1.21	0.861	0.902	0.977	1	0.884	0.95
PC-14	0.244	0.24	0.292	0.248	0.834	0.775	0.896	1.09	0.766	0.846	0.944	1.02	0.875	0.962	0.972	1.11	1.03	1
NCI-H1755	0.453	0.388	0.362	0.385	0.685	0.748	0.799	0.723	0.767	0.953	0.99	0.98	1.01	0.79	0.868	0.896	0.872	0.874
